PubChem BioAssay AID1159560 (GlaxoSmithKline (GSK), 2015)
Active and inactive are the calls of the source. The rule behind the calls is not given here.

system: Leishmania donovani growth inhibition; test: Leishmania donovani growth inhibition (AID 1159560);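 note: parasites exposed to compound for 72 h before the viability read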

Structure (SMILES)	IC50
O=C(Nc1ccccc1C(=O)Nc1ccccn1)c1ccco1	> 50 µM (inactive)
CCc1cccc(CC)c1-n1c(SCC(=O)NC(=O)NCc2ccco2)nnc1-c1cccnc1	> 50 µM (inactive)
COc1ccc(C2CC(c3ccccc3Cl)=NN2C(=O)CNC(=O)C2CCCC2)cc1 (stereo not given)	> 50 µM (inactive)
O=C(Nc1ccc(Br)cn1)c1ccc(Cn2cnc([N+](=O)[O-])n2)cc1	> 50 µM (inactive)
CN1CCN(c2nc(-c3ccc(Cl)cc3)c3c(N)n(C)nc3n2)CC1	> 50 µM (inactive)
CC(=O)Nc1ccc(-c2ccnc(Nc3cccc(C#N)c3)n2)cc1	40 µM
COc1ccc2nccc(NC(=O)C3(OC)CCN(CC(O)c4ccc5c(c4)OCCO5)CC3)c2n1 (stereo not given)	10 µM
Cc1ccc(C)c(-n2nnnc2Sc2nc([N+](=O)[O-])nn2C)c1	> 50 µM (inactive)
CCCCN(C(=O)c1ccc(NC(=O)C(C)C)cc1)c1ccccc1	1 µM
Cc1c([N+](=O)[O-])c(C(=O)Nc2sc3c(c2C#N)CCC(C)C3)nn1C (stereo not given)	25 µM
O=C(CSc1nnc2ccc(-c3ccc(F)cc3)nn12)N1CCCCC1	> 50 µM (inactive)
CC(C)(C)CC(=O)NCCc1csc(-c2ccc(F)cc2)n1	> 50 µM (inactive)
CS(=O)(=O)c1ccccc1C(=O)N(Cc1ccccc1)c1ccccc1	16 µM
COc1cccc(S(=O)(=O)Nc2ccc3c(c2)CC(N2CCC(NC(=O)C4CC4)CC2)C3)c1 (stereo not given)	> 50 µM (inactive)
Cc1cc(N2CCc3ccccc3C2)nc(Nc2ccc(S(=O)(=O)N3CCOCC3)cc2)n1	3.2 µM
O=C(CN(Cc1ccccn1)Cc1ccccn1)NCc1ccc(-c2csnn2)cc1	7.9 µM
CCCc1cc(N)nc(-c2cc(CCC)cc(N)n2)c1	20 µM
C=CCn1nc([N+](=O)[O-])nc1Oc1ccc(Cl)cc1Cl	> 50 µM (inactive)
COc1cc(C(C)C)c(S(C)(=O)=O)cc1C(=O)N1CCN(c2ccccc2Cl)CC1	5 µM
O=C(CCc1ccc(-c2ccccc2)o1)N1CCN(c2ccc(O)cc2)CC1	10 µM
O=C(NC1CCN(C2Cc3ccc(NS(=O)(=O)c4cc(F)cc(F)c4)cc3C2)CC1)C1CC1 (stereo not given)	25 µM
Cn1nc(C(=O)N2CCc3ccccc32)c2c1CCS(=O)(=O)C2	4 µM
CC(Cn1ccnc1)NC(=O)COc1ccc(Cl)c(Cl)c1 (stereo not given)	> 50 µM (inactive)
COc1ccc(-c2cc(C)no2)cc1S(=O)(=O)Nc1ccc(F)c(Cl)c1	25 µM
COc1ccccc1-c1c(C)[nH]c2nc(N)nc(C)c12	13 µM
CCN(CC)S(=O)(=O)c1ccc(C)c(NC(=O)c2cc(Cl)c3c(c2)OCO3)c1	> 50 µM (inactive)
COc1ccc2ncc(F)c(NC(=O)C3(O)CCC(NCc4ccc5c(c4)OCCO5)CC3)c2n1 (stereo not given)	40 µM

Structure (SMILES)	IC50
COc1ccc(S(=O)(=O)NCc2ccc(-c3ccc(CN(C)CCO)cc3)cc2)cc1	> 50 µM (inactive)
O=C(c1cc2cc(Cl)ccc2[nH]1)N1CCCCC1c1cccnc1 (stereo not given)	50 µM
N#Cc1cc(-c2ccnc(Nc3cccc(CN4CCOCC4)c3)n2)ccc1NCCN	4 µM
COc1ccc([N+](=O)[O-])cc1NC(=O)c1cc(Cl)ccc1O	7.9 µM
O=C(NC(CO)c1ccc(F)cc1)c1ccc(-c2c[nH]c3ncccc23)s1 (stereo not given)	32 µM
Cc1ccc(S(=O)(=O)Cn2nnnc2C(c2cccnc2)N2CCN(c3ccccc3)CC2)cc1 (stereo not given)	1 µM
CS(=O)(=O)N1CCC(Nc2ncc(Br)c(Nc3cccc(F)c3C(N)=O)n2)CC1	0.1 µM
COc1ccc2ncc(=O)n(CCN3CC[C@H](NCc4ncc(Cl)c5[nH]ncc45)[C@H](O)C3)c2n1	> 50 µM (inactive)
Cc1cc(C)n(-c2nc(NC(C)C)nc(NC(C)(C)C)n2)n1	3.2 µM
CC(C)(C)c1csc(NC(=O)c2ccc([N+](=O)[O-])s2)n1	1.6 µM
O=C1CCCCCC1(Cc1cnc[nH]1)c1ccc(Cl)cc1Cl (stereo not given)	> 50 µM (inactive)
N#Cc1cccc(CNc2ccc(-c3cnn(CC4CC4)c(=O)c3C#N)cc2)c1	25 µM
O=C(NCC1CCCCC1)c1cnns1	13 µM
COC(=O)c1ccc(-c2cnc3ccc(NCc4ccccn4)nn23)cc1	13 µM
O=C(CN(Cc1ccccn1)Cc1ccccn1)NCc1ccc2c(c1)OCO2	13 µM
CN(Cc1nc2ccc(C(=O)NCC3CCCCC3)cc2[nH]1)C1CCCc2cccnc21 (stereo not given)	3.2 µM
N#Cc1cnc(Nc2cccc(CCN3CCOCC3)c2)nc1Nc1ccccc1C(N)=O	2.5 µM
Cc1cc(NC(=O)C2CC2)ccc1OC1CCN(Cc2ccco2)CC1	> 50 µM (inactive)
O=C(Cn1cnc([N+](=O)[O-])n1)Nc1ccc(Cl)cc1C(=O)c1ccccc1	> 50 µM (inactive)
Cn1cncc1CN1CCC2(CC1)COC(Cc1ccccc1)C2 (stereo not given)	13 µM
Cn1ccnc1CN1CCc2[nH]cnc2C1c1ccccc1OCc1ccccc1 (stereo not given)	> 50 µM (inactive)
CCOc1ccc(Nc2ccc(S(=O)(=O)N3CCN(C)CC3)cc2[N+](=O)[O-])cc1OCC	0.79 µM
COc1ccc(Nc2nc(-c3ccccn3)cc(N3CCCC(O)C3)n2)cc1 (stereo not given)	2.5 µM
Clc1cc(Br)ccc1OCCCCn1ccnc1	0.13 µM
Cc1cc(Nc2ccc(C#N)c(Cl)c2C)n[nH]1	50 µM
COc1ccc(-c2cnc(NC(=O)c3cc(-c4ccccn4)n[nH]3)n2C)cc1	4 µM
CCS(=O)(=O)c1cccc(C(=O)Nc2nc(-c3ccccn3)cs2)c1	1.3 µM

Structure (SMILES)	IC50
COc1ccc(-c2cnc(NC(=O)c3ccc(F)cc3)n2C)cc1	3.2 µM
CC(C)(C)C(=O)Nc1cc(C2CC2)nn1-c1nc2c(c(=O)[nH]1)CCCC2	0.079 µM
CCCNC(=O)Nc1cccc(-c2nc3ncccc3o2)c1	3.2 µM
Cc1ccccc1CNc1cc(C2CC2)nc(-c2nccn2C)n1	1.6 µM
N#Cc1cccc(Nc2nccc(N3CCC(NS(=O)(=O)c4cccc(C#N)c4)CC3)n2)c1	0.63 µM
Cc1ccc(NC(=O)c2ccc([N+](=O)[O-])s2)cc1S(=O)(=O)N1CCOCC1	2 µM
CC(c1ccccn1)N(C)Cc1nc2ccccc2n1C(C)C (stereo not given)	10 µM
CCn1nccc1CN(C)C(=O)C=Cc1ccc(Cl)cc1	16 µM
NC(=O)c1cc(NC(=O)c2ccccc2COc2ccccc2)ccc1Cl	7.9 µM
Cc1ccc(S(C)(=O)=O)cc1Nc1nccc(-c2sc(N)nc2-c2ccccc2)n1	3.2 µM
O=C1CN(C(=O)c2cccc(Nc3ncc(-c4ccc5c(c4)OCO5)cn3)c2)CCN1	1.6 µM
O=C(NCc1nnc2n1CCCCC2)c1csc(-c2ccccc2)n1	> 50 µM (inactive)
O=C(NCCc1nc(-c2ccc(F)c(F)c2)n[nH]1)C1CCCCC1	> 50 µM (inactive)
CNC(=O)C1Cc2ccccc2N1C(=O)COc1cccc(OC)c1 (stereo not given)	> 50 µM (inactive)
COc1cc(NC(=O)Nc2cccc(CNC(=O)OC3CCCCC3)c2)ccc1-c1cnco1	> 50 µM (inactive)
Cn1nc([N+](=O)[O-])nc1Oc1ccc(C(=O)c2ccccc2)cc1	> 50 µM (inactive)
COc1ccc(C(=O)Nc2c(C)nn(COc3cccc(C(F)(F)F)c3)c2C)cc1	> 50 µM (inactive)
CCCCn1c(=O)c2c(N)onc2n(CCCC)c1=O	> 50 µM (inactive)
CCC(CC)C(=O)Nc1cccc(C(=O)Nc2nnc(C3CCCCC3)s2)c1	> 50 µM (inactive)
Cc1ccc(S(=O)(=O)Nc2ccc(CN3CCN(C(=O)c4cccc(C#N)c4)CC3)cc2)cc1	10 µM
COc1ccc(-c2nc3ncccc3o2)cc1NC(=O)c1cccs1	5 µM
CC(=O)Nc1ccc(Nc2nccc(-c3cnn4ncccc34)n2)cc1C(F)(F)F	0.2 µM
COc1ccc(-c2csc(NC(=O)c3ccc([N+](=O)[O-])s3)n2)cc1	3.2 µM
Cc1nn(-c2nc3ccccc3s2)c2c1C(c1ccc(OCC(N)=O)cc1)SCC(=O)N2 (stereo not given)	> 50 µM (inactive)
CN(C)CCN(C)Cc1ccc(Cl)cc1NS(=O)(=O)c1ccc(Cl)c(Cl)c1	5 µM
CCc1nn(-c2ncc(F)c(NC(C)C)n2)c(N)c1C1CCCCC1	3.2 µM
Oc1cccnc1-c1n[nH]c(Cc2ccccc2)n1	2 µM

Structure (SMILES)	IC50
CC(C)CC(=O)NC(c1cccs1)c1ccc2cccnc2c1O (stereo not given)	6.3 µM
COc1ncc(-c2ccc3nccc(-c4ccncc4)c3c2)cc1NS(=O)(=O)C1CC1	1.3 µM
NS(=O)(=O)c1ccc(CNC(=O)c2ccc([N+](=O)[O-])s2)cc1	32 µM
Cc1nc(N2CCC(C(=O)N3CCC(O)(c4cccnc4)CC3)CC2)nc2ccc(C(C)C)cc12	> 50 µM (inactive)
CC(C)n1c(-c2nonc2N)nc2cccc(OCCN3CCCC3)c21	> 50 µM (inactive)
c1ccc(-c2nc(NCc3ccco3)c3ccccc3n2)nc1	3.2 µM
O=C1c2cnc(N3CCCC3)nc2CN1c1ccc2c(c1)OCO2	6.3 µM
O=C(NCCNc1noc(-c2ccc([N+](=O)[O-])cc2)n1)c1ccc(Cl)cc1	> 50 µM (inactive)
Cc1ccc(NC(C)C(=O)Nc2ccc(C#N)cc2)cc1S(=O)(=O)N1CCCCC1 (stereo not given)	0.79 µM
COc1ccc(NC(=O)c2ccc(NC(=O)CN(c3ccccc3C)S(C)(=O)=O)cc2)cc1	> 50 µM (inactive)
Cc1cc(Br)cc(C(=O)c2c(C(C)C)c(=O)[nH]c(=O)n2Cc2ccnc(N)c2)c1	> 50 µM (inactive)
O=C(Nc1cccc(S(=O)(=O)Nc2ccc(Br)cc2)c1)c1ccc([N+](=O)[O-])s1	0.79 µM
CCOc1cnn(C)c(=O)c1Nc1ccc(C(=O)NCc2ccc(F)cc2)cc1	32 µM
O=C(c1ccc(Cl)cc1)c1ccc(OC(=O)N2CCOCC2)cc1	6.3 µM
O=C(CSc1ccc(-c2ccccn2)nn1)Nc1ccc(Cl)cc1	> 50 µM (inactive)
COc1ccccc1-n1c(SCC(=O)Nc2ccc3c(c2)OCO3)nc2c(c1=O)SCC2	10 µM
COCc1cc(Nc2cccc(Cl)c2)nc(-c2ccccn2)n1	2.5 µM
CC(C)S(=O)(=O)c1ccc(-c2cnc(N)c3cc(-c4ccnc(N)n4)ccc23)cc1	2 µM
COc1ccc(C2=NCC(CSc3nnc(-c4ccc5c(c4)OCO5)o3)S2)cc1 (stereo not given)	1 µM
O=C(c1cnn(-c2ccccc2)n1)N1CCCC(n2ccnc2)C1 (stereo not given)	7.9 µM
CCc1cc(C(=O)Nc2nccn2-c2ccccc2)cs1	6.3 µM
Nc1nc(-c2ccccn2)nc(N)c1Cc1c(F)cccc1Cl	2.5 µM
O=C(c1ccccc1)N1CCC(C(=O)N2CCC(Oc3ccccc3Cl)CC2)CC1	> 50 µM (inactive)
COc1cc(Cl)c(C)cc1NC(=O)c1ccc([N+](=O)[O-])s1	7.9 µM
